#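 Cultured in 96-well plates, cells were exposed to test compound for 48 hours across five concentrations. TGI: total growth inhibition.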
# How the values were obtained:
# Assay in all cases: NCI-60 cell line screen, 48 h
# HCC-2998 colon = test system: HCC-2998 colon
# HCT-116 colon = test system: HCT-116 colon
# HCT-15 colon = test system: HCT-15 colon
# HOP-92 NSCLC = test system: HOP-92 NSCLC
# HT29 colon = test system: HT29 colon
# KM12 colon = test system: KM12 colon
# MDA-MB-435 = test system: MDA-MB-435
# MDA-N = test system: MDA-N
# NCI-H460 lung = test system: NCI-H460 lung
# NCI-H522 lung = test system: NCI-H522 lung
# OVCAR-3 ovarian = test system: OVCAR-3 ovarian
# RPMI-8226 leukemia = test system: RPMI-8226 leukemia
# SK-MEL-28 melanoma = test system: SK-MEL-28 melanoma
# SK-MEL-5 melanoma = test system: SK-MEL-5 melanoma
# SNB-75 CNS = test system: SNB-75 CNS
# SW-620 colon = test system: SW-620 colon
# T-47D breast = test system: T-47D breast
# TK-10 renal = test system: TK-10 renal
Structure (SMILES),TGI (HCC-2998 colon),TGI (HCT-116 colon),TGI (HCT-15 colon),TGI (HOP-92 NSCLC),TGI (HT29 colon),TGI (KM12 colon),TGI (MDA-MB-435),TGI (MDA-N),TGI (NCI-H460 lung),TGI (NCI-H522 lung),TGI (OVCAR-3 ovarian),TGI (RPMI-8226 leukemia),TGI (SK-MEL-28 melanoma),TGI (SK-MEL-5 melanoma),TGI (SNB-75 CNS),TGI (SW-620 colon),TGI (T-47D breast),TGI (TK-10 renal)
Cn1c(=O)nc2n(CCO)ccnc-2c1=O,> 100 µM,> 100 µM,> 100 µM,> 100 µM,> 100 µM,> 100 µM,> 100 µM,> 100 µM,> 100 µM,> 100 µM,> 100 µM,> 100 µM,> 100 µM,> 100 µM,> 100 µM,> 100 µM,> 100 µM,> 100 µM
OCCOCCN1CCN(c2nc(N3CCCC3)c3nc(Cl)c(NCc4ccccc4)nc3n2)CC1,15 µM,26.4 µM,15.3 µM,26.2 µM,13.7 µM,26.8 µM,26 µM,22.7 µM,24.7 µM,31.5 µM,29.2 µM,27.9 µM,30.2 µM,17.9 µM,36.5 µM,44.6 µM,30.6 µM,25 µM
Oc1ccc2ccccc2c1-c1c(Nc2ccccc2)ccc2ccccc12,29.2 µM,33.5 µM,> 56.4 µM,> 46.5 µM,> 53.5 µM,37.3 µM,20.2 µM,20.5 µM,39.9 µM,29.6 µM,22.7 µM,47.6 µM,27.4 µM,29 µM,31.9 µM,26.8 µM,39.5 µM,32.1 µM
CC(=O)Nc1ccc2c3c(cc(O)c2c1)N(C(=O)CCCC(=O)Nc1ccc2c4c(cc(O)c2c1)N(C(=O)OC(C)(C)C)CC4CCl)CC3CCl (stereo not drawn),1.91 µM,> 50 µM,> 50 µM,> 15.1 µM,> 13.1 µM,22.7 µM,2 µM,3.34 µM,21.5 µM,3.85 µM,2.89 µM,> 34.8 µM,> 13 µM,> 11.6 µM,12.6 µM,> 50 µM,12.7 µM,35 µM
COc1cc(CNc2nc3ccccc3nc2-c2cccs2)cc(OC)c1OC,> 100 µM,> 100 µM,> 100 µM,10.1 µM,> 100 µM,> 100 µM,> 100 µM,95.8 µM,37.5 µM,38.7 µM,> 100 µM,53.4 µM,> 100 µM,28.8 µM,> 100 µM,> 100 µM,> 100 µM,> 100 µM
COC(=O)[C@@]12CC[C@]1(C(=O)OC)C1C(C)=CC(=O)O[C@@]12C (stereo partly drawn),> 100 µM,> 100 µM,> 100 µM,> 100 µM,> 100 µM,> 100 µM,> 100 µM,> 100 µM,> 100 µM,> 100 µM,> 100 µM,> 100 µM,> 100 µM,> 100 µM,> 100 µM,> 100 µM,> 100 µM,> 100 µM
